Source: patent US10772928B2, “Modulation and detection of a neuronal alternative splicing regulatory network for treatment and diagnosis of neurological disorders” (The Governing Council of the University of Toronto, priority 2014, dated 2020)
“Also recorded” adds a separate entry of the source. Peptide text beside a SMILES is read from it. * marks the point of attachment. Cbz = O=C(OCc1ccccc1)*

Assays:
[1] = tested on: hippocampal mouse neurons; assay: RNA-Seq analysis of alternative splicing events after KCl depolarization of cultured hippocampal neurons (Table 3); format: cell-based; conditions: for number of alternative splicing events displaying changes: change of at least 15
Procedure: A) Number of alternative splicing events with PSI, percent intron retention (PIR) or percent splice site usage (PSU) changes of at least 15, 30 minutes and 3 hours after neuronal depolarization. B) Microexons and cassette exons are preferentially skipped following neuronal depolarization, whereas retained introns show no directionality. C) Gene ontology analysis of microexons and cassettes exons with ΔPSI≥15 during neuronal depolarization.
A systematic analysis of alternative splicing events modulated by neuronal activity, including microexons, longer cassette exons, retained introns and alternative 5′ and 3′ splice sites was first performed. Cultured wild-type hippocampal mouse neurons were depolarized using KCl treatment for thirty minutes or three hours and RNA-Seq analysis was performed on these samples. […] Among the additional alternative splicing events affected by neuronal depolarization were 887 (of 10830 detected alternative cassette exons>27 nt; 8.1%) alternative cassette exons and 672 retained introns. Longer alternative cassette exons were also primarily skipped in depolarized neurons (747/887; 84.2%) (FIG. 42B). Genes harboring depolarization-dependent alternative cassette exons have functions related to signal transduction and transcription regulation whereas those with microexons relate primarily to vesicle transport (FIG. 42C).

[2] = tested on: nSR100; assay: nSR100 protein (western blot) and mRNA (qRT-PCR) levels in KCl-depolarized DIV11 cortical neurons; format: cell-based, mouse
Source text: A) Overlap between microexons that are skipped in humans with ASD (upper set), skipped upon neuronal depolarization (lower left set) and nSR100-regulated microexons (lower right set). B) Microexons were plotted based on their PSI difference between depolarized and resting wild-type neurons (X-axis), and between nSR100^Δ7-8/Δ7-8 and nSR100^+/+ mice (Y-axis). C) Cumulative distribution plots indicating the position of the first UGC motif within 200 nt upstream of neuronal activity-regulated microexons (dashed curve) or longer cassette exons (thick solid curve) vs. non-neural alternative cassette exons (light solid curve). The number of exons used to analyze each subgroup is shown in parentheses. D) Western blot on KCl-treated DIV11 cortical neurons (left panel) and quantification of nSR100 protein level (right panel). E) RT-PCR showing increased intron retention and microexon inclusion in nSR100 transcripts early after depolarization of DIV11 cortical neurons. […] G) Representative RT-PCRs on nuclear and cytosolic fractions (left panel) to assess localization of nSR100 transcripts in three replicates of cultured DIV4 cortical neurons with qRT-PCR quantification of the abundance of nSR100 isoforms harboring the retained intron, normalized to GAPDH levels in the correspondent cell fractions from six replicates (right panel). […]

[3] = tested on: nSR100; assay: nSR100 protein levels by western blot in dox-inducible, nSR100-expressing 293T cells; format: cell-based, human; conditions: versus DMSO or control siRNAs
Source text: Tubulin detection was used as loading control.
RT-PCR assays were used to confirm FBXW11 knockdown. nSR100 protein levels were monitored using a western blot. Tubulin and 1-actin detection was used to control for loading.
By applying affinity purification coupled to mass-spectrometry (AP-MS), several interaction nSR100 partner proteins were detected that provide insight into mechanisms of post-translational regulation of nSR100 levels. For example, AP-MS experiments identified the F-box protein FBXW11 (also known as 1TRCP2) as an nSR100 interaction partner. The Skp-Cullin-F-box (SCF) complex is a multi-protein complex that regulates cellular protein levels via ubiquitin-mediated proteolysis. FBXW11 is an E3 ubiquitin ligase that confers specificity to the SCF complex by recognizing a particular phosphodegron on targets. In addition, Skp1, which is required for recognizing and binding FBXW11, was also detected in nSR100 AP-MS experiments. Phosphorylation of consensus binding sites for F-box proteins, including FBXW11, is typically required for targeting of proteins for degradation by the proteosomal pathway. The set of nSR100 interaction partners identified by AP-MS included several kinases such as PLK1, GSK3B, CSNK2, CSNK1, CDK1 and SRPK1, as well as other kinases that may control nSR100 levels and or activity.

[4] = target: T1, nSR100 (Homo sapiens, UniProt A7MD48); assay: Regulation by nSR100: microexon inclusion level (PSI) by RNA-Seq in human 293T cells overexpressing nSR100 (Table 1); format: cell-based; conditions: YES/NO
T1 construct: expressed in transfected cells; host or cells: 293T (human kidney cells), doxycycline-inducible nSR100 expression
T1 sequence (A7MD48 1-611): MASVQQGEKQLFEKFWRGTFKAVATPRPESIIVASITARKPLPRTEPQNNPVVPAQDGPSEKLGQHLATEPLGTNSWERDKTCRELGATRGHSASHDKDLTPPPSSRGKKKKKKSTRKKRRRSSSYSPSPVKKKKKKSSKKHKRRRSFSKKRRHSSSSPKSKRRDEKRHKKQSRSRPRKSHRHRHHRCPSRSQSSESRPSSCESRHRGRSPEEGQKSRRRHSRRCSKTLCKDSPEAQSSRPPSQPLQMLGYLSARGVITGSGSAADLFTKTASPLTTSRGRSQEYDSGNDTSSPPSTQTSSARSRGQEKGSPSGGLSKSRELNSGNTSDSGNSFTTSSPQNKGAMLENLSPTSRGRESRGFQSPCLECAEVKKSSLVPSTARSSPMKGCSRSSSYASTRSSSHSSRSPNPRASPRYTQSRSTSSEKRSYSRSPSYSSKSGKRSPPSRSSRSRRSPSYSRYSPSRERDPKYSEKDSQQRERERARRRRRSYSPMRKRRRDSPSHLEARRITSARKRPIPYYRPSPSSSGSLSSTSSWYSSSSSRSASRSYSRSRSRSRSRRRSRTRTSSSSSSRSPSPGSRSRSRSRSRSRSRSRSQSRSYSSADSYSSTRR
Source text: A) Percent of neural-regulated exons within each length class that is affected by nSR100 expression in human 293T kidney cells (absolute ΔPSI>15, light grey or absolute ΔPSI>25, dark grey). p-values correspond to two-sided proportion tests of affected vs. non-affected events. B) Average normalized density of nSR100 cross-linked sites in 200 nt windows encompassing neural-regulated exons of different length classes. FPB, Fragments Per Billion. […]
(§1) An RNA-Seq analysis pipeline was developed to detect and quantify all AS event classes involving all hypothetically possible splice junctions formed by the usage of annotated and unannotated splice sites, including those that demarcate microexons. […]
(§2) A multi-module analysis pipeline was developed that uses RNA-Seq, expressed sequence tag (EST) and cDNA data, as well as gene annotations and evolutionary conservation, to assemble libraries of exon-exon-junctions (EEJs) for subsequent read alignment to detect and quantify AS events in RNA-Seq data. […] Alt3 or Alt5 events were quantified based on the fraction of reads supporting the usage of each alternative splice site. Intron retention was analyzed as recently described (Braunschweig et al., 2014). […]

[5] = target: T2, nSR100 (Mus musculus, UniProt Q8BKA3); assay: Regulation by nSR100: microexon inclusion level (PSI) by RNA-Seq in mouse N2A cells depleted of nSR100 (Table 2); format: cell-based
T2 construct: host or cells: mouse N2A cells
T2 sequence (Q8BKA3 1-608): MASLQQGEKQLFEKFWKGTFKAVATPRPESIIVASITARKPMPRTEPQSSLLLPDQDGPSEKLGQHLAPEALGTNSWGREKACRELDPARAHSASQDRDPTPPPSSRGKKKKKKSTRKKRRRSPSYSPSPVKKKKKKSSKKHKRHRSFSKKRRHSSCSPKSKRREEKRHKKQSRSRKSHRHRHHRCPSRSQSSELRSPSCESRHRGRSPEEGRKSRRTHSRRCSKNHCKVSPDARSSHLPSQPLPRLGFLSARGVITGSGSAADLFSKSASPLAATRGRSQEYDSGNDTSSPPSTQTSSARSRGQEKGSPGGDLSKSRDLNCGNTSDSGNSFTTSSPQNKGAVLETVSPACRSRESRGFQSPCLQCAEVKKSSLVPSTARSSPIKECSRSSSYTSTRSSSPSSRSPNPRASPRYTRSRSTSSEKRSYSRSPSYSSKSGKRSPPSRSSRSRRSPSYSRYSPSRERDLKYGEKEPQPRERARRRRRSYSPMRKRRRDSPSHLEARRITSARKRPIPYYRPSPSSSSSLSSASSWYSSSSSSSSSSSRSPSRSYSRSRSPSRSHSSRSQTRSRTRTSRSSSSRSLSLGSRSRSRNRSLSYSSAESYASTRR
Source text: A-H) Percent of neural-regulated exons within each length class that is affected at 15<|ΔPSI|<25 and |ΔPSI|>25 by (A) RBFOX1 knockdown in human neural precursor cells; (B) MBNL1 and MBNL2 double knockdown in human HeLa cells; (C) ESRP1 knockdown in human PNT2 cells; (D) nSR100/Srrm4 knockdown in mouse N2A cells; (E) Ptbp1 knockdown in mouse N2A cells; (F) Ptbp2 knockout in mouse cortex (P1 stage); (G) Ptbp2 knockout in mouse embryonic brain (18.5 days post-conception); and (H) Rbfox1 knockout. p values correspond to two-sided proportion tests of regulated versus non-regulated events. I) Expression of nSR100 in different isolated brain cell types (Zhang et al., 2014). Error bars indicate SEM. […]
as §1
as §2, with “site.” for “site. Intron retention was analyzed as recently described (Braunschweig et al., 2014).”

Molecule: [Cl-].[K+] [KCl]
- number of alternative splicing events displaying changes ([1]; 30 minutes after KCl treatment): 222
- microexons with increased skipping, share of all microexons ([1]; 3 hours of KCl treatment): 14.7%
- number of microexons with higher inclusion levels ([1]; 3 hours of KCl treatment): 7
- number of microexons with increased skipping (of 598 detected) ([1]; 3 hours of KCl treatment): 88
- number of alternative splicing events displaying changes ([1]; 3 hours of KCl treatment): 1,829
- decrease in nSR100 protein levels ([2]; 30 minutes into KCl treatment, DIV11 cortical neurons): 2 fold
- nSR100 mRNA levels ([2]; thirty minutes after depolarization, qRT-PCR): remain steady

Molecule: CC(C)C[C@@H](C=O)NC(=O)[C@H](CC(C)C)NC(=O)[C@H](CC(C)C)NC(=O)OCc1ccccc1 [MG132] (Cbz-Leu-Leu-Leu-aldehyde)
- nSR100 protein levels [3]: increased levels of SRRM4; also recorded: significant increases in levels of nSR100

Molecule: DTNB
- Regulation by nSR100 [4]: YES (minimum threshold (PSI≥10) requirement for annotation as “YES”)

Molecule: Dtnb
- Regulation by nSR100 ([5]; threshold change of PSI≥10): YES

Molecule: Sbf1
- Regulation by nSR100 ([5]; YES/NO): YES
